Paper PMC11207571, “Applicability of MDR1 Overexpressing Abcb1KO-MDCKII Cell Lines for Investigating In Vitro Species Differences and Brain Penetration Prediction” (Pharmaceutics, 2024)

Key:
cynomolgus monkey Mdr1 [1] = biological target: T1, cynomolgus monkey Mdr1 (Macaca fascicularis, UniProt Q8HZQ6); test: cell-based
cynomolgus monkey Mdr1 [2] = biological target: T1, cynomolgus monkey Mdr1; test: Inhibition of 3H-digoxin or 3H-quinidine bidirectional transport in cyMDR1 cells; details: 60 min, IC50 from ER; for IC50: Inhibition of quinidine transport IC50±SD, cyMDR1, probe 3H-quinidine 0.1 µM
rat Mdr1a [3] = biological target: T2, rat Mdr1a (Rattus norvegicus, UniProt Q6PSM0); test: Inhibition of 3H-digoxin or 3H-quinidine bidirectional transport in rMDR1 cells; type: cell-based; set-up: rat Mdr1a (NM_133401.1); expressed in transfected cells; host or cells: Abcb1KO-MDCKII (canine kidney, endogenous Abcb1 knocked out), transduced, single-cell clone; details: IC50 from ER
T2 sequence (Q6PSM0 1-1272): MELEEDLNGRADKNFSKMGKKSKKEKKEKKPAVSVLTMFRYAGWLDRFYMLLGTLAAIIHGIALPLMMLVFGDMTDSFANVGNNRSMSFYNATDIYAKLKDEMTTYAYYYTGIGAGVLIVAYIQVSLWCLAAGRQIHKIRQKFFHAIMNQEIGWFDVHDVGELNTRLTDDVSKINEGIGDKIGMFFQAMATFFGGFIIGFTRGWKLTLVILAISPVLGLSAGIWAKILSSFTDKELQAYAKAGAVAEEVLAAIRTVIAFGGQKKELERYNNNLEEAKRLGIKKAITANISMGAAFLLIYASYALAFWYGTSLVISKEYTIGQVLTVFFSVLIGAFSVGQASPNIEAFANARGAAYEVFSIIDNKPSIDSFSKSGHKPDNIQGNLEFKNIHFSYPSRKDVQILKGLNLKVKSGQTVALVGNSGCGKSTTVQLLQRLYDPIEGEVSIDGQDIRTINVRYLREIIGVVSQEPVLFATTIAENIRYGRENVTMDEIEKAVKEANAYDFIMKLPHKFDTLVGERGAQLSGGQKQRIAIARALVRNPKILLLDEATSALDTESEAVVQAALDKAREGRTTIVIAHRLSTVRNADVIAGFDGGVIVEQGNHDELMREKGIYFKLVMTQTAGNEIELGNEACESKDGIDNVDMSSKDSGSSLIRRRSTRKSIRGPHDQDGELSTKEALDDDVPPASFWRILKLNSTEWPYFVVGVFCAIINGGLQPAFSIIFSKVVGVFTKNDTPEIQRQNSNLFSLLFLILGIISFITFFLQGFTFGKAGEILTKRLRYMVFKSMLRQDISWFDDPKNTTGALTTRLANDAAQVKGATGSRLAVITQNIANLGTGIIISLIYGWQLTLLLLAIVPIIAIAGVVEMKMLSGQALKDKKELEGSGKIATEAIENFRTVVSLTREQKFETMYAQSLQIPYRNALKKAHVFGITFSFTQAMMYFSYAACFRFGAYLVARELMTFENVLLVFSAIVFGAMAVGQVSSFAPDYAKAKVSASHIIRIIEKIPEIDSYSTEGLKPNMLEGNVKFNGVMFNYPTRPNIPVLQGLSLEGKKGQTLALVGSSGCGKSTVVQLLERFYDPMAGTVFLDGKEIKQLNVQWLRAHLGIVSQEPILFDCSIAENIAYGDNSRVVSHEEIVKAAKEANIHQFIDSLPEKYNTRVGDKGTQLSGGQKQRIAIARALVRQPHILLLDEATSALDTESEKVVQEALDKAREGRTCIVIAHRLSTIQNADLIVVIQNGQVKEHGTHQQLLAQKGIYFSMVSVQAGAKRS

[4] = Bidirectional transport assay, efflux ratio in Abcb1KO-MDCKII-Mock control cells; details: dog, MDCK, pH 7.4
Experimental: (§1) Eluent A consisted of 0.1% formic acid in water, eluent B consisted of 0.1% formic acid in acetonitrile. Then, 10 µL samples were injected into the HPLC-MS/MS system. Mass spectrometric detection was performed in SRM mode, and ion transitions for each analyte were optimized during method development. Samples were analyzed in pools, with each pool containing three to four analytes.

human MDR1 [5] = biological target: T3, human MDR1 (Homo sapiens, UniProt P08183); test: Bidirectional transport assay, efflux ratio in Abcb1KO-MDCKII hMDR1 cells; details: human, MDCK-MDR1, pH 7.4
T3 sequence (P08183 whole entry): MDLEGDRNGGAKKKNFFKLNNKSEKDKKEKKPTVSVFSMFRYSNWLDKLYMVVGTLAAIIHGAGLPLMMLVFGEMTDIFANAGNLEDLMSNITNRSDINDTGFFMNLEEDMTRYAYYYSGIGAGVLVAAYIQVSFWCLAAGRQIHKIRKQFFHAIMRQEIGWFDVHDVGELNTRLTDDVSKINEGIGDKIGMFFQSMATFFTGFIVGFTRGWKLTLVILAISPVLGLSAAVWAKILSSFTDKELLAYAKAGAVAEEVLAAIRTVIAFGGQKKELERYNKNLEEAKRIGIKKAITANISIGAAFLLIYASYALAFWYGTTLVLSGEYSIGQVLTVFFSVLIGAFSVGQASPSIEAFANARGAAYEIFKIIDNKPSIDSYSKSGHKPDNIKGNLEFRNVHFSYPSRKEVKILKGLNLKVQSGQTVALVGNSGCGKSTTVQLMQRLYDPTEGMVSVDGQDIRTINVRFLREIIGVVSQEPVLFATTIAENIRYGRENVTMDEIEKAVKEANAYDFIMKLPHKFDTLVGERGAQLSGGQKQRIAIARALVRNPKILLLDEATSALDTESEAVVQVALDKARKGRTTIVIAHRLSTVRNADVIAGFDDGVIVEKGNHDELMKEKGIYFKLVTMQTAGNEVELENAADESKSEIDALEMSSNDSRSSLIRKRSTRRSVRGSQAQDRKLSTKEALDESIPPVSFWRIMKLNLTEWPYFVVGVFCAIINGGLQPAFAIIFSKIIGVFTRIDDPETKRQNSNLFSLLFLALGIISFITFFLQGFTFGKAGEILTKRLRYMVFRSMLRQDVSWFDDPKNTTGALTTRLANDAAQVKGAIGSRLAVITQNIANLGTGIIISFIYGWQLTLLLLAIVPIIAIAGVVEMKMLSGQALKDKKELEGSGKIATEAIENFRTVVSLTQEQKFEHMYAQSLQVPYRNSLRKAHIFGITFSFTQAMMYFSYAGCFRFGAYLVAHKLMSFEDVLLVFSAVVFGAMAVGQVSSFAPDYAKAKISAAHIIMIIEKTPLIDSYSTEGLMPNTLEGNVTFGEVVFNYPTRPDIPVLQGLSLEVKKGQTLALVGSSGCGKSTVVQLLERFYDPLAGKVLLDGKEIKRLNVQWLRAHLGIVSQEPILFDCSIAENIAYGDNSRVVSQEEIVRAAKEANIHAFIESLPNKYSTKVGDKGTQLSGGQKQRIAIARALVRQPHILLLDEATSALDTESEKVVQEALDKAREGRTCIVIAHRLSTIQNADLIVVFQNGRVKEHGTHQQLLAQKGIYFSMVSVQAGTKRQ
Experimental: as §1

rat Mdr1a [6] = biological target: T2, rat Mdr1a; test: Bidirectional transport assay, efflux ratio in Abcb1KO-MDCKII rMDR1 cells; details: rat, pH 7.4
Experimental: as §1

mouse Mdr1a [7] = biological target: T4, mouse Mdr1a (Mus musculus, UniProt P21447); test: Bidirectional transport assay, efflux ratio in Abcb1KO-MDCKII mMDR1 cells; details: mouse, pH 7.4
T4 sequence (P21447 whole entry): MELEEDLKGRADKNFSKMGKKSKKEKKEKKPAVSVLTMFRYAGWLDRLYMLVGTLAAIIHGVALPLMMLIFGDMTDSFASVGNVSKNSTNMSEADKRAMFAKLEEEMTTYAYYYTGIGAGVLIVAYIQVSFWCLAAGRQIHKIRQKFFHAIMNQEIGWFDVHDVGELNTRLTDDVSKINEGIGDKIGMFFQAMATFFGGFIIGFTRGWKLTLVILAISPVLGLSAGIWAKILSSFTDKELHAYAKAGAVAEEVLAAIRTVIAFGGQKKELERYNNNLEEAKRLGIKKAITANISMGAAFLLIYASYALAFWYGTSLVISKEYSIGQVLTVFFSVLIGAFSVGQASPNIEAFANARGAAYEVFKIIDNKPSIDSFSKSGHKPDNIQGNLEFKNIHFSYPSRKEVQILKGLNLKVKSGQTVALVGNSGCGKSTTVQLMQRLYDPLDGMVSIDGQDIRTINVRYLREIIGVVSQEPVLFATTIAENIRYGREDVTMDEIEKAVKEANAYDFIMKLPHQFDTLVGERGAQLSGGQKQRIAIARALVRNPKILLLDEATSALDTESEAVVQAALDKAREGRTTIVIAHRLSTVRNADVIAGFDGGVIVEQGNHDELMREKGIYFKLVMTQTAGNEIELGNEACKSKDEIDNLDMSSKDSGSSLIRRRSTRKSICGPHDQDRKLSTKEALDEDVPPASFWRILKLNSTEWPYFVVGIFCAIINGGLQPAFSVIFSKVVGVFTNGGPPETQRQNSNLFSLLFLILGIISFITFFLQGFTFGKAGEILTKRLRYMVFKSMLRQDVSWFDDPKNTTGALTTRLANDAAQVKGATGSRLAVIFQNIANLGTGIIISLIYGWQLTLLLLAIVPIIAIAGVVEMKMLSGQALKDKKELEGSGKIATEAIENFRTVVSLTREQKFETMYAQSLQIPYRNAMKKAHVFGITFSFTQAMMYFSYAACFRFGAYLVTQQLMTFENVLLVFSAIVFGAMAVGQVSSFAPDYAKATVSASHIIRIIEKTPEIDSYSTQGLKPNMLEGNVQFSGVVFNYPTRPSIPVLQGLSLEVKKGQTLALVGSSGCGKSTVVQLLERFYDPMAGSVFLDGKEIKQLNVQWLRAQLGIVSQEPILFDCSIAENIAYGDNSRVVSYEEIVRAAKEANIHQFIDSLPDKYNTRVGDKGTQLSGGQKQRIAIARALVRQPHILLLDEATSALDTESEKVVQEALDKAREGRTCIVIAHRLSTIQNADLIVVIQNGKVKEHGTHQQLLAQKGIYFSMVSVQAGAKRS
Experimental: as §1

cynomolgus monkey Mdr1 [8] = biological target: T1, cynomolgus monkey Mdr1; test: Bidirectional transport assay, efflux ratio in Abcb1KO-MDCKII cyMDR1 cells; details: cynomolgus monkey, pH 7.4
Experimental: as §1

human BCRP = biological target: T5, human BCRP (Homo sapiens, UniProt Q9UNQ0); test: Bidirectional transport assay, efflux ratio in MDCKII-BCRP cells; details: human, pH 7.4
T5 sequence (Q9UNQ0 1-655): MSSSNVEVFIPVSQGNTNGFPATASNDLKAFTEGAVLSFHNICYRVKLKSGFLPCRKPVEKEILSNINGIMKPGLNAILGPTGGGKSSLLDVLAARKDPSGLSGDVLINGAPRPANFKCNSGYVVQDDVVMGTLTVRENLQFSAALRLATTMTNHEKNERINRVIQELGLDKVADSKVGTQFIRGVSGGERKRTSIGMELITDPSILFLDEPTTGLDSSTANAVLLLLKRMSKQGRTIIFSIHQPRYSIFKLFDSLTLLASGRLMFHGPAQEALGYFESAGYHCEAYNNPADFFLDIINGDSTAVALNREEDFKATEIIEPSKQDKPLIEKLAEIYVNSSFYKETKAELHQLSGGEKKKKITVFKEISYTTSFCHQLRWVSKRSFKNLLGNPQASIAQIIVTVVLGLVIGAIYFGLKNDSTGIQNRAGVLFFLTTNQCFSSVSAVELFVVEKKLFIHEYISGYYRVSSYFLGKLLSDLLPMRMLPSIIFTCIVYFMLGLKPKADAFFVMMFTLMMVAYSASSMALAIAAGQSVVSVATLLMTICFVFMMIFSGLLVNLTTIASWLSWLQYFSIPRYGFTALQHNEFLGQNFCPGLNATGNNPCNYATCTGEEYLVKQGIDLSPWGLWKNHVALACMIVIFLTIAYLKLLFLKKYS
Experimental: as §1

human MDR1 [9] = biological target: T3, human MDR1; test: Inhibition of 3H-digoxin or 3H-quinidine bidirectional transport in hMDR1 cells; details: IC50 from ER
mouse Mdr1a [10] = biological target: T4, mouse Mdr1a; test: Inhibition of 3H-digoxin or 3H-quinidine bidirectional transport in mMDR1 cells; type: cell-based; set-up: mouse Mdr1a (NM_011076.3); expressed in transfected cells; host or cells: Abcb1KO-MDCKII (canine kidney, endogenous Abcb1 knocked out), transduced, single-cell clone; details: IC50 from ER
[11] = Inhibition of digoxin transport IC50±SD, rMDR1, probe 3H-digoxin 1 µM, 120 min
[12] = Inhibition of quinidine transport IC50±SD, rMDR1, probe 3H-quinidine 1 µM, 30 min
[13] = Inhibition of digoxin transport IC50±SD, hMDR1, probe 3H-digoxin 1 µM, 120 min
[14] = Inhibition of quinidine transport IC50±SD, hMDR1, probe 3H-quinidine 1 µM, 60 min
[15] = Inhibition of digoxin transport IC50±SD, mMDR1, probe 3H-digoxin 1 µM, 120 min
[16] = Inhibition of quinidine transport IC50±SD, mMDR1, probe 3H-quinidine 1 µM, 60 min
[17] = probe 3H-quinidine 1 µM, 60 min

T1 sequence (Q8HZQ6 1-1283): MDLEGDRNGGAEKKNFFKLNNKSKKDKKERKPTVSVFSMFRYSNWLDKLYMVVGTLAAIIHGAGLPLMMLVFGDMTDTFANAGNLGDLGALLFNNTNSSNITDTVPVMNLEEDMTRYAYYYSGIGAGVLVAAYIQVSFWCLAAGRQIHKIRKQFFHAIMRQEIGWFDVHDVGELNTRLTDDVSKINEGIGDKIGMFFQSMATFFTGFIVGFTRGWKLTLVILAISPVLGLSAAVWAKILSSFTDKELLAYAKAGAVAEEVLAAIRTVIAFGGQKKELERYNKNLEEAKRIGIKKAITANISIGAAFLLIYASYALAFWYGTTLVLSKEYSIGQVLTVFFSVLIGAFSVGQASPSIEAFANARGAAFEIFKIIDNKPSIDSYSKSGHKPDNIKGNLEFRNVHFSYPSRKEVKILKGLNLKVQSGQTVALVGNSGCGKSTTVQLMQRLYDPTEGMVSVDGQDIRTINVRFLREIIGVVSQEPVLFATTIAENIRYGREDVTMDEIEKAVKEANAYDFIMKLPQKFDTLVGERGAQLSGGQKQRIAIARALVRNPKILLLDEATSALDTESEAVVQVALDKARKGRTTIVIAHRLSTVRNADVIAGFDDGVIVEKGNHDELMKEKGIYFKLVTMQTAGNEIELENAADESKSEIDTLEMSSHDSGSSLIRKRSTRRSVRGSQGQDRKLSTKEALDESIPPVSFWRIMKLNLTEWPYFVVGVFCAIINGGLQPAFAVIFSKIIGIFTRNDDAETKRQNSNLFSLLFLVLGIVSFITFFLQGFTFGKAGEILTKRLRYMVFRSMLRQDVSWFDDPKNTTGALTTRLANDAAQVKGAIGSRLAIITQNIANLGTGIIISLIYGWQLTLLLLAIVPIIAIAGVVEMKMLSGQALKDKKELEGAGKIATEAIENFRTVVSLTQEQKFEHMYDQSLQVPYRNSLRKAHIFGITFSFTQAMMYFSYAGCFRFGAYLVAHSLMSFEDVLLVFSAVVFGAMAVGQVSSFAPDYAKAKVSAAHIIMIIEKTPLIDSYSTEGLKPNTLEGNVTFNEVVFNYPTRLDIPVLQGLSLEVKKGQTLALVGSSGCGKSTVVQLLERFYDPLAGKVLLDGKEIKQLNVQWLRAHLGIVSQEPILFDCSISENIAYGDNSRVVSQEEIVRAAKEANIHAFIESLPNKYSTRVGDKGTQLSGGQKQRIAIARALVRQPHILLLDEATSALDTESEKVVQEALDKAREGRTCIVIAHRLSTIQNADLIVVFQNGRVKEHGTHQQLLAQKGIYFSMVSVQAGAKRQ

Compound | IC50 (cynomolgus monkey Mdr1 [1]) | IC50 (cynomolgus monkey Mdr1 [2]) | IC50 (rat Mdr1a [3]; [11]) | IC50 (rat Mdr1a [3]; [12]) | efflux ratio at 120 min, 1 µM [4] | efflux ratio at 120 min, 1 µM (human MDR1 [5]) | efflux ratio at 120 min, 1 µM (rat Mdr1a [6]) | efflux ratio at 120 min, 1 µM (mouse Mdr1a [7]) | efflux ratio at 120 min, 1 µM (cynomolgus monkey Mdr1 [8]) | efflux ratio at 120 min, 1 µM (human BCRP) | IC50 (mouse Mdr1a [10]; [15]) | IC50 (mouse Mdr1a [10]; [16]) | further results
CC(C)(C)NC(=O)[C@@H]1C[C@@H]2CCCC[C@@H]2CN1C[C@@H](O)[C@H](Cc1ccccc1)NC(=O)[C@H](CC(N)=O)NC(=O)c1ccc2ccccc2n1 [Saquinavir] | 12.3 ± 5.44 µM | 20.7 ± 7.67 µM | 25 ± 11.4 µM | 12.3 ± 5.02 µM | – | – | – | – | – | – | – | – | –
CC/C(=C(\c1ccccc1)c1ccc(OCCN(C)C)cc1)c1ccccc1 [Tamoxifen] | – | – | – | – | 2.25 ± 1.24 | 1.65 ± 0.24 | 1.61 ± 0.18 | 2.26 ± 0.76 | 1.81 ± 0.51 | 0.81 ± 0.14 | – | – | –
CCCc1nc2c(C)cc(-c3nc4ccccc4n3C)cc2n1Cc1ccc(-c2ccccc2C(=O)O)cc1 [Telmisartan] | 4.06 ± 1.69 µM | 1.55 ± 0.53 µM | 11.6 ± 3.91 µM | 2.72 ± 1.26 µM | 0.38 ± 0.06 | – | 2.65 ± 0.75 | 2.2 ± 0.27 | 3.18 ± 0.63 | 12.2 ± 0.95 | 2.6 ± 1.59 µM | 2.28 ± 0.97 µM | IC50 (human MDR1 [9]; [13]): 15.2 ± 5.66 µM; IC50 (human MDR1 [9]; [14]): 1.81 ± 0.87 µM
CC(C)(C)c1ccc(C(O)CCCN2CCC(C(O)(c3ccccc3)c3ccccc3)CC2)cc1 (centres unmarked) [Terfenadine] | – | – | – | – | 0.88 ± 0.06 | 10.7 ± 0.78 | 1.29 ± 0.14 | 2.64 ± 0.33 | 0.92 ± 0.14 | 2.96 ± 0.31 | – | – | –
Cc1ccccc1C(=O)Nc1ccc(C(=O)N2CCCC(O)c3cc(Cl)ccc32)c(C)c1 (centres unmarked) [Tolvaptan] | 6.68 ± 1.63 µM | 5.11 ± 1.65 µM | 8.79 ± 2.81 µM | 4.14 ± 1.47 µM | – | – | – | – | – | – | 10.9 ± 1.46 µM | 3.92 ± 0.87 µM | IC50 (human MDR1 [9]; [13]): > 30 µM; IC50 (human MDR1 [9]; [14]): 1.28 ± 0.44 µM
O=c1n(CCCN2CCN(c3cccc(Cl)c3)CC2)nc2ccccn12 [Trazodone] | – | – | – | – | 2.66 ± 0.59 | 1.71 ± 0.34 | 1.4 ± 0.16 | 0.98 ± 0.24 | 1.5 ± 0.1 | 0.86 ± 0.11 | – | – | –
CC[C@]1(O)C[C@@H]2CN(CCc3c([nH]c4ccccc34)[C@@](C(=O)OC)(c3cc4c(cc3OC)N(C)[C@H]3[C@@](O)(C(=O)OC)[C@H](OC(C)=O)[C@]5(CC)C=CCN6CC[C@]43[C@@H]65)C2)C1 [Vinblastine] | – | – | – | – | 1.32 ± 0.28 | 51.6 ± 5.3 | 61.2 ± 5.31 | 50.5 ± 6.89 | 61.4 ± 7.47 | 22.9 ± 4.47 | – | – | –
CN(C)CCc1c[nH]c2ccc(C[C@H]3COC(=O)N3)cc12 [Zolmitriptan] | – | – | – | – | 0.97 ± 0.09 | 4.3 ± 0.26 | 2.69 ± 0.16 | 1.99 ± 0.16 | 2.24 ± 0.22 | 3.94 ± 0.25 | – | – | –
O[C@@H](COc1cccc2ncccc12)CN1CCN([C@@H]2c3ccccc3[C@@H]3[C@H](c4ccccc42)C3(F)F)CC1 [Zosuquidar] | 0.05 ± 0.02 µM | 0.12 ± 0.09 µM | 0.6 ± 0.29 µM | 0.57 ± 0.21 µM | – | – | – | – | – | – | 0.37 ± 0.13 µM | 0.49 ± 0.26 µM | –
CC(C)(C)NCC(O)COc1ccc(NC(=O)NC2CCCCC2)cc1 (centres unmarked) [talinolol] | – | – | – | – | – | – | – | – | – | – | – | – | Inhibition of digoxin transport IC50±SD, hMDR1 (human MDR1 [9]; probe 3H-digoxin 1 µM, 120 min): no inhibition; Inhibition of quinidine transport IC50±SD, hMDR1 (human MDR1 [9]; [17]): no inhibition; Inhibition of quinidine transport IC50±SD, cyMDR1 (cynomolgus monkey Mdr1 [2]; probe 3H-quinidine 0.1 µM): no inhibition; Inhibition of digoxin transport IC50±SD, rMDR1 (rat Mdr1a [3]; probe 3H-digoxin 1 µM, 120 min): no inhibition; Inhibition of quinidine transport IC50±SD, rMDR1 (rat Mdr1a [3]; probe 3H-quinidine 1 µM, 30 min): no inhibition; Inhibition of digoxin transport IC50±SD, mMDR1 (mouse Mdr1a [10]; probe 3H-digoxin 1 µM, 120 min): no inhibition; Inhibition of quinidine transport IC50±SD, mMDR1 (mouse Mdr1a [10]; [17]): no inhibition
